Test results from the RepoRT retention time repository.

test: Waters ACQUITY UPLC BEH C18, 100 × 2.1 mm, 1.7 µm, 40 °C, 0.3 to 0.4 mL/min, estimated dead time 0.63 min; A: water + 0.1% formic acid; B: methanol + 0.1% formic acid; gradient (min/%B) 0/0.5 0.1/0.5 10/80 10.1/99.5 12/99.5; settings: stereoisomer not certain

Row | LC retention time [min] | Structure (SMILES)
1 | 5.81 | Oc1ccc(C=Cc2cc(O)cc3c2C(c2cc(O)cc(O)c2)C(c2ccc(O)cc2)O3)cc1 (stereo not drawn)
2 | 2.71 | O=C(O)C=Cc1ccc(O)cc1
3 | 2.69 | CN1c2cc(O)c(N=NC(N)=O)cc2CC1S(=O)(=O)O (stereo not drawn)
4 | 2.36 | CC(C)CC(NC(=O)C(C)N)C(=O)O (stereo not drawn)
5 | 2.49 | Oc1cc(O)c2c(c1)OC(c1cc(O)c(O)c(O)c1)C(O)C2 (stereo not drawn)
6 | 4.8 | O=C1c2c(O)cc(O)cc2OC(c2ccc(O)cc2)C1O (stereo not drawn)
7 | 6.18 | O=C1OCC(Cc2cccc(O)c2)C1Cc1cccc(O)c1 (stereo not drawn)
8 | 4.71 | O=c1cc(-c2ccc(O)cc2)oc2cc(OC3OC(CO)C(O)C(O)C3OC3OCC(O)(CO)C3O)cc(O)c12 (stereo not drawn)
9 | 3.22 | COc1cc(C=CC(=O)NCCCCN=C(N)N)ccc1O
10 | 5.61 | CC(C)C(NC(=O)Cc1c[nH]c2ccccc12)C(=O)O (stereo not drawn)
11 | 3.94 | O=c1c2ccccc2nc2n1CCC2
12 | 6.14 | CCC(C)C(NC(=O)Cc1c[nH]c2ccccc12)C(=O)O (stereo not drawn)
13 | 5.06 | O=C(C=Cc1ccc(O)cc1)NCCc1ccc(O)cc1
14 | 4.24 | COC(=O)C1CC23CCCN4CCC5(c6ccccc6NC15C2C)C43 (stereo not drawn)
15 | 4.59 | COc1ccc(C2CC(=O)c3c(O)cc(OC4OC(CO)C(O)C(O)C4OC4OC(C)C(O)C(O)C4O)cc3O2)cc1O (stereo not drawn)
16 | 4.05 | CC(CS)C(=O)N1CCCC1C(=O)O (stereo not drawn)
17 | 5.99 | COc1ccc(-c2oc3cc(O)cc(O)c3c(=O)c2O)cc1
18 | 5.97 | O=c1oc2cc(O)ccc2c2oc3cc(O)ccc3c12
19 | 5 | O=C(C=Cc1ccc(O)c(O)c1)NCCCCN(CCCNC(=O)C=Cc1ccc(O)cc1)C(=O)C=Cc1ccc(O)c(O)c1
20 | 6.26 | COc1cc(C=CC(=O)O)cc(OC)c1
21 | 2.67 | NCCCCNC(=O)C=Cc1ccc(O)cc1
22 | 6.63 | COc1cc(CC2C(=O)OCC2Cc2ccc(OC)c(OC)c2)ccc1O (stereo not drawn)
23 | 5.03 | COc1cc2c(c(OC)c1OC)-c1ccc(OC)c(=O)cc1C(N(C)Cc1ccccc1O)CC2 (stereo not drawn)
24 | 4.38 | COc1cc(C=CNC(=O)C=Cc2ccc(O)c(OC)c2)ccc1O

Row | LC retention time [min] | Structure (SMILES)
25 | 6.2 | CC(C)CC(NC(=O)Cc1c[nH]c2ccccc12)C(=O)O (stereo not drawn)
26 | 4.5 | CCC12CCCN3CCc4c(n(c5ccccc45)C(O)(C(=O)OC)C1)C32 (stereo not drawn)
27 | 2.93 | O=c1cc[nH]c2ccccc12
28 | 3.7 | O=c1cc(-c2ccc(O)c(O)c2)oc2c(C3OC(CO)C(O)C(O)C3O)c(O)cc(O)c12 (stereo not drawn)
29 | 2.88 | O=c1cc2oc(-c3ccc([O-])c(O)c3)c(OC3OC(CO)C(O)C(O)C3OC3OCC(O)C(O)C3O)cc-2c(O)c1 (stereo not drawn)
30 | 5.34 | O=c1cc(-c2ccc(O)c(O)c2)oc2cc(O)cc(O)c12
31 | 3.11 | O=C(O)CC(=O)OCC1OC(Oc2c(-c3ccc(O)c(O)c3)oc3cc(OC4OC(CO)C(O)C(O)C4O)cc(O)c3c2=O)C(O)C(O)C1O (stereo not drawn)
32 | 2.33 | O=C(O)C(Cc1ccccc1)NCC1(O)OC(CO)C(O)C1O (stereo not drawn)
33 | 4.47 | O=c1c(OC2OCC(O)C(O)C2O)c(-c2ccc(O)cc2)oc2cc(O)cc(O)c12 (stereo not drawn)
34 | 2.61 | OCC1OC(Oc2cc3c(O)cc(O)cc3[o+]c2-c2cc(O)c(O)c(O)c2)C(O)C(O)C1O (stereo not drawn)
35 | 1.79 | NC(Cc1ccc(O)cc1)C(=O)O (stereo not drawn)
36 | 1.87 | CCC(C)C(N)C(=O)NC(CC(=O)O)C(=O)O (stereo not drawn)
37 | 3.76 | OCC=Cc1ccc(O)cc1
38 | 2.53 | O=C(O)CCCC(=O)O
39 | 1.67 | NC(CCC(=O)NCC(=O)O)C(=O)O (stereo not drawn)
40 | 5.59 | COc1cccc2c(=O)c3ccoc3n(C)c12
41 | 5.42 | COc1ccc(C=CC(=O)c2c(O)cc(OC3OC(CO)C(O)C(O)C3OC3OC(C)C(O)C(O)C3O)cc2O)cc1 (stereo not drawn)
42 | 9.06 | COc1cc(O)c(CC=C(C)C)c(O)c1C(=O)C=Cc1ccc(O)cc1
43 | 6.07 | COc1ccc(-c2cc(=O)c3c(O)cc(O)cc3o2)cc1-c1c(O)cc(O)c2c(=O)cc(-c3ccc(O)cc3)oc12
44 | 5.43 | COc1ccc(-c2coc3cc(OC4OC(COC(=O)CC(=O)O)C(O)C(O)C4O)ccc3c2=O)cc1 (stereo not drawn)
45 | 5.3 | COc1cc2c(=O)c(-c3ccc(O)cc3)coc2cc1O
46 | 5.71 | COc1c(-c2ccccc2)oc2c(OC)c(O)cc(O)c2c1=O
47 | 5.05 | COc1ccc(-c2coc3cc(OC4OC(CO)C(O)C(O)C4O)c(OC)cc3c2=O)cc1 (stereo not drawn)
48 | 2.06 | O=C(O)CCSCCC(=O)O

Second part, the compound before the results:

Row | Structure (SMILES) | LC retention time [min]
49 | CCC(C)C(=O)OC1C(O)C2C(CN3CC(C)CCC3C2(C)O)C2CC34OC5(O)C(OC(=O)C(C)(O)C(C)OC(C)=O)CCC3(C)C5CC(O)C4C21O (stereo not drawn) | 5.04
50 | COc1cc(C(O)C(CO)Oc2c(OC)cc(-c3cc(=O)c4c(O)cc(OC5OC(COC(=O)CC(=O)O)C(O)C(O)C5O)cc4o3)cc2OC)ccc1O (stereo not drawn) | 5.17
51 | CC=C1CC(C)C(C)(O)C(=O)OCC2=CCN3CCC(OC1=O)C23 (stereo not drawn) | 3.8
52 | CC1CCC2C(C)C3C(CC4C5CC=C6CC(O)CCC6(C)C5CCC43C)N2C1 (stereo not drawn) | 5.99
53 | Cc1ccc([N+](=O)[O-])cc1N | 2.34
54 | CC1=C(O)C(=O)CC(OC2CC(C)(C)CC3C4=CCC5C6(C)CCC(OC7OC(C(=O)O)C(O)C(O)C7OC7OC(C(=O)O)C(O)C(O)C7O)C(C)(CO)C6CCC5(C)C4(C)CCC23C)O1 (stereo not drawn) | 7.96
55 | CC(C)=CCC=C(C)C1CCC2(C)C1C(O)CC1C3(C)CCC(OC4OC(CO)C(O)C(O)C4O)C(C)(C)C3CCC12C (stereo not drawn) | 7.63
56 | CCCCCC=CC=CC(CCCCCCCC(=O)O)OO (stereo not drawn) | 8
57 | COc1ccc(-c2cc(=O)c3c(O)cc(OC4OC(CO)C(O)C(O)C4OC4OC(C)C(O)C(O)C4O)cc3o2)cc1O (stereo not drawn) | 4.47
58 | C=CC12CN(C)C3C4COC(CC41)C1(C(=O)Nc4ccccc41)C32 (stereo not drawn) | 3.21
59 | CC1(C(=O)O)CCC2(C)CCC3(C)C(=CCC4C5(C)CCC(OC6OC(C(=O)O)C(O)C(O)C6OC6OC(C(=O)O)C(O)C(O)C6O)C(C)(C)C5CCC43C)C2C1 (stereo not drawn) | 6.45
60 | CCN1CC2(COC(=O)c3ccccc3N)CCC(OC)C34C5CC6C(OC)CC(O)(C5C6OC)C(O)(C(OC)C23)C14 (stereo not drawn) | 5.5
61 | O=c1c(OC2OC(CO)C(O)C(O)C2O)c(-c2ccc(OC3OC(CO)C(O)C(O)C3O)c(O)c2)oc2cc(O)cc(O)c12 (stereo not drawn) | 3.54
62 | CC1OC(OC2CCC3(C)C(CCC4(C)C3CC=C3C5CC(C)(C)CCC5(C(=O)O)CCC34C)C2(C)CO)C(O)C(OC2OC(CO)C(OC3OC(CO)C(O)C(O)C3O)C(O)C2O)C1O (stereo not drawn) | 6.92
63 | CCCCCCCCCCCCC(O)C(O)C(COC1OC(CC(C(=O)O)C(=O)O)C(O)C(O)C1O)NC(C)=O (stereo not drawn) | 4.79
64 | CC1OC(OC2C(COC3OC(CO)C(O)C(O)C3O)OC(OC3CCC4(C)C(CCC5(C)C4C=CC4=C6CC(C)(C)CCC6(CO)C(O)CC45C)C3(C)C)C(O)C2O)C(O)C(O)C1O (stereo not drawn) | 6.29
65 | CC1=C(CCC(C)COC2OC(CO)C(O)C(O)C2O)OC2CC3C4CC=C5CC(O)CC(OC6OCC(O)C(O)C6OC6OC(C)C(O)C(O)C6O)C5(C)C4CCC3(C)C12 (stereo not drawn) | 5.59
66 | CCCCC(=O)OC1C(CO)OC(OC2(CO)OC(CO)C(OC(C)=O)C2O)C(OC(=O)CCC)C1OC(=O)CCCC (stereo not drawn) | 8.04

Row | Structure (SMILES) | LC retention time [min]
67 | O=C(O)C1OC(OC2C(Oc3cc(O)c4c(=O)cc(-c5ccc(O)c(O)c5)oc4c3)OC(C(=O)O)C(O)C2O)C(O)C(O)C1O (stereo not drawn) | 4
68 | C1CCN2CC3CC(CN4CCCCC34)C2C1 (stereo not drawn) | 2.33
69 | CC1(C)CCC2(C(=O)O)CCC3(C)C(=CCC4C5(C)CC(O)C(OC6OC(CO)C(OC7OC(CO)C(O)C(O)C7O)C(O)C6O)C(C)(CO)C5CCC43C)C2C1 (stereo not drawn) | 7.01
70 | CCCCCC=CCC=CCCCCCCCC(=O)OCC(O)COP(=O)(O)OCCN (stereo not drawn) | 9.24
71 | CC1CCC2(OC1O)OC1CC3C4CC=C5CC(OC6OC(CO)C(OC7OC(C)C(O)C(O)C7O)C(O)C6OC6OC(C)C(O)C(O)C6O)CCC5(C)C4CCC3(C)C1C2C (stereo not drawn) | 5.71
72 | CSCCCCCCCN=C=S | 9.19
73 | CNC(=O)Oc1ccc2c(c1)C1(C)CCN(C)C1N2C (stereo not drawn) | 3.31
74 | OCC1OC(Oc2cc3c(OC4OC(CO)C(O)C(O)C4O)cc(O)cc3[o+]c2-c2ccc(O)c(O)c2)C(O)C(O)C1O (stereo not drawn) | 2.5
75 | C=CC1C(OC2OC(CO)C(O)C(O)C2O)OC=C(C(=O)OC)C1CC1NCCc2c1[nH]c1ccccc21 (stereo not drawn) | 4.36
76 | CC1C2CCC3C4CC=C5CC(N(C)C)CCC5(C)C4CCC32CN1C (stereo not drawn) | 3.35
77 | COc1cc(C=CC(=O)OC2C(OC3C(Oc4cc(O)c5c(=O)cc(-c6ccc(O)c(OC)c6)oc5c4)OC(C(=O)O)C(O)C3O)OC(C(=O)O)C(O)C2O)ccc1O (stereo not drawn) | 4.68
78 | CCC1=NC2CC3(C(=O)N(OC)c4ccccc43)C3CC1C2CO3 (stereo not drawn) | 3.99
79 | CC(C)=CCCC(C)(OC1OC(CO)C(O)C(O)C1O)C1CCC2(C)C1C(O)CC1C3(C)CCC(O)C(C)(C)C3C(OC3OC(CO)C(O)C(O)C3O)CC12C (stereo not drawn) | 4.8
80 | CCN1CC2(CO)CCC(OC)C34C5CC6C(OC)CC(O)(C5C6OC)C(O)(C(OC)C23)C14 (stereo not drawn) | 3.67
81 | COc1cc(-c2cc(=O)c3c(O)cc(OC4OC(CO)C(O)C(O)C4O)cc3o2)cc(OC)c1O (stereo not drawn) | 4.57
82 | CC1(C)CC(=O)C2(C)CCC3(C)C(=CCC4C5(C)CCC(OC6OC(C(=O)O)C(O)C(O)C6OC6OC(CO)C(O)C(O)C6OC6OC(CO)C(O)C(O)C6O)C(C)(CO)C5CCC43C)C2C1 (stereo not drawn) | 7.49
83 | COC(=O)C1=COC(C)C2CN3CCc4c([nH]c5ccccc45)C3CC12 (stereo not drawn) | 4.87
